Assay results published in patent US12018327B2, “Methods and compositions relating to epoxide hydrolase genes” (The Regents of the University of California, priority 2018, dated 2024).

Assays:
[1] = test system: human DCs (CD3-CD19-CD11c+); assay: Human DC maturation by flow cytometry (PPARγ-regulated proteins); assay type: cell-based
Method: Human DC maturation was assessed by flow cytometry. PBMCs were isolated from two healthy human donors using Ficoll-Hypaque gradient centrifugation as previously described and cultured for five days in the presence of 20 ng mL^−1 IL-4 and 10 ng mL^−1 GM-CSF. Monocytic DCs (DCs) were defined as CD3-CD19-CD11c+. The DC gating strategy can be found in FIG. 4E.

[2] = target: transient receptor potential vanilloid 1 (TRPV1) (Homo sapiens, UniProt Q8NER1); details: ref [15]; cited from earlier work
Sequence of transient receptor potential vanilloid 1 (TRPV1) (Q8NER1 whole entry, species assumed): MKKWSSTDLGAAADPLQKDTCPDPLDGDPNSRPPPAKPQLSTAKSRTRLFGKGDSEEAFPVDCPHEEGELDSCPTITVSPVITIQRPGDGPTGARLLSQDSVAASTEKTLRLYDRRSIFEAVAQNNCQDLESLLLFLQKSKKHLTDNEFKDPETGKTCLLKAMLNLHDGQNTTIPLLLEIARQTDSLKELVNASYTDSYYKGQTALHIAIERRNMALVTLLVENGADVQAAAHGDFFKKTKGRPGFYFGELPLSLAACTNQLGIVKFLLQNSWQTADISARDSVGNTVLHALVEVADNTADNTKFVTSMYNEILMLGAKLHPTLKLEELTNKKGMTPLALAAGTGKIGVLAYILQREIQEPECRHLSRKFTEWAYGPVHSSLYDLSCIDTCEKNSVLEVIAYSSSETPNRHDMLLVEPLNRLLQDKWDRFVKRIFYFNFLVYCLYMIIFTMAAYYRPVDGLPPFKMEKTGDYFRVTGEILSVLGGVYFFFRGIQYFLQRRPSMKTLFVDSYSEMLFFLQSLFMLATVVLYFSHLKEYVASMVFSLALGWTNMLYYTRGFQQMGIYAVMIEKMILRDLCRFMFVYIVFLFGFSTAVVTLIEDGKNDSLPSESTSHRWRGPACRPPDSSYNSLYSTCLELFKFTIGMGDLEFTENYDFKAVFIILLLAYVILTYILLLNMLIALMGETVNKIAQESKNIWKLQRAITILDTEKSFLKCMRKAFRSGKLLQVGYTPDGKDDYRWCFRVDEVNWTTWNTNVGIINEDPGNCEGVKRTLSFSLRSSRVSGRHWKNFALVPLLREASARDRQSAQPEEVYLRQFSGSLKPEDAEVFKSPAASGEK

human DCs [3] = assay: IL-10 secretion from human DCs, cytometric bead array; assay type: cell-based
Method: IL-10 secretion was measured using a cytometric bead array (BD Biosciences, San Jose, CA). Human DCs were isolated from the peripheral blood mononuclear cells (PBMCs) of two healthy human donors as previously described and treated with increasing concentrations of 12,13 DiHOME (Cayman Chemical, Ann Arbor, MI) solubilized in 0.2% dimethylsulfoxide (DMSO). […] IL-10 concentrations were determined according to the manufacturer's instructions.

autologous T cells = assay: Co-culture of 12,13 DiHOME treated DCs with autologous T cells, T cell subsets by flow cytometry; assay type: cell-based, human
Method: Co-culture of human DCs and T cells in the presence of 12,13 DiHOME was performed as previously described. In brief, DCs were isolated from the PBMCs of two healthy human donors and treated for five days with 130 μM 12,13 DiHOME solubilized in 0.2% DMSO or vehicle (0.2% DMSO) in the presence of 20 ng mL^−1 IL-4 (R&D Systems, Minneapolis, MN) and 10 ng mL^−1 GM-CSF (R&D Systems, Minneapolis, MN). Fresh treatment media was added every 48 hrs throughout the course of the study. Eighteen hours prior to co-culture, DCs were stimulated with 10 ng mL^−1 TNFα, IL1β, and IL-6 (Peprotech, Rocky Hill, NJ) and 1 mM prostaglandin E2 (Stemcell Technologies, Cambridge, MA). DCs were subsequently washed and co-cultured with autologous T cells in the presence of 10 ng mL^−1 anti-CD28 and anti-CD49d (BD Bioscience, San Jose, CA).
After five days of co-culture, T cell subsets were analyzed by flow cytometry. To assess cytokine secretion, cells were stimulated for 16 hrs with Phorbol Myristate Acetate-Ionomycin (ACROS, Morris Planes, NJ) and GolgiPlug (Gplug; BD Biosciences, San Jose, CA). Flow cytometry data was collected on a BD LSR II flow cytometer. Helper T cell subsets were defined as follows: Th1 CD3+CD4+IFNγ+; Th2 CD3+CD4+IL-4+; Th17 CD3+CD4+IL-17+, Treg CD3+CD4+CD25+FoxP3+. The human T cell gating strategy can be found in FIG. 4D.

human DCs [4] = assay: Gene expression in human DCs by qPCR; assay type: cell-based; details: 130 μM, two days; relative to beta-actin
Method: Gene expression was examined in human DCs. DCs were isolated as described above and treated for two days with 130 μM 12,13 DiHOME. Cells were washed twice in PBS, and RNA was extracted using the RNAqueous™ Micro Kit (Ambion, Foster City, CA). The RT2 First Strand Kit (Qiagen, Germantown, MD) was used to synthesize cDNA, and expression of CD36, CD1a, FABP4, and HADH relative to beta-actin was measured using Power SYBR Green PCR Master Mix (ThermoFisher Scientific, Waltham, MA) and a QuantStudio 6 Real-Time PCR system (ThermoFisher Scientific, Waltham, MA).

CCCCCC(O)C(O)C/C=C\CCCCCCCC(=O)O (stereo not shown) [12,13 DiHOME]
expression of CD36 on DCs ([1]; high concentrations (200 μM)): increase
cell viability ([1]; human DCs, flow cytometry): did not alter
expression of CCR7 on DCs ([1]; increasing doses): significant decrease
expression of CD1a on DCs ([1]; increasing doses): significant decrease
expression of CD80 on DCs ([1]; increasing doses): significant decrease
action on TRPV1 [2]: activator
IL-10 secretion 24 hours after treatment (human DCs [3]; 130 μM, 24 hr): significant decreases
IL-10 secretion 48 hours after treatment (human DCs [3]; 130 μM, 48 hr): significant decreases
IL-10 secretion from human DCs (human DCs [3]; 75, 130, 200 μM, supernatant after 24 hours): dose-dependent decrease
cell viability (autologous T cells; DC and T cell co-culture): without decreasing
distribution of helper T cells (autologous T cells; DCs treated with 130 μM): significant shift
frequency of Tregs (CD3+CD4+CD25+FoxP3+) (autologous T cells; DCs treated with 130 μM): specific decrease
expression of CD1a (RNA) (human DCs [4]): significant decrease
expression of CD36 (RNA) (human DCs [4]): significant increases
expression of FABP4 (RNA) (human DCs [4]): significant increases
expression of HADH (RNA) (human DCs [4]): significant increases
